{"source": "paper PMC6063804", "about": "(EJNMMI Research, 2018)", "key": {"[1]": {"biological_target": "ion channel of NMDA-R", "parameters": "method as in PMID 25648682", "conditions": "preclinical; read-out: apparent affinity against [^3H]MK-801 (Ki); cited from earlier work"}, "[2]": {"conditions": "cited from earlier work"}, "[3]": {"type": "in vivo, human", "conditions": "for activity that could not be extracted / mean parent fraction: plasma; for mean parent fraction: all 20 scans", "description": "All subjects received a radial artery cannula for continuous and manual arterial sampling. For each scan, an arterial input function was obtained using an on-line blood sampler (Veenstra Instruments, Joure, The Netherlands) with a withdrawal rate of 5 mL · min^−1 during the first 5 min and 2.5 mL · min^−1 from 5 to 60 min post injection (p.i.) in order to stay within blood volume sampling constraints. Continuous blood withdrawal was interrupted briefly to manually collect arterial blood samples (10 mL each) at set timepoints (5, 10, 20, 40, 60, 75, 90, 120 min p.i.). In several subjects, an arterial sample was taken immediately before PET and incubated with [^18F]PK-209 at 37 °C to compare radioactivity recovery fractions throughout the 120 min with extracted fractions of the arterial samples taken during PET. The samples were used to measure blood and plasma radioactivity concentrations, whole blood-to-plasma ratios, and plasma metabolite fractions of [^18F]PK-209. For the latter purpose, samples were analyzed using solid-phase extraction combined with HPLC using off-line radioactivity detection.\nThe final arterial plasma input function was derived using both continuous and discrete arterial blood data. The input function was corrected for plasma to whole blood ratio, metabolites, and time delay. For each scan, two additional plasma input functions were generated to investigate the effect of within-subject and between-subject variability in plasma data. For the within-subject averaged input function, the mean of PET1 and PET2 [^18F]PK-209 parent fractions per subject were used at each of the eight sample timepoints for both scans. For the population-averaged input function, the mean parent fractions for all five subjects in the TRT and ketamine groups (i.e., 10 scans) were taken at each timepoint. The manual arterial blood samples were also used for assessment of the plasma ketamine concentration. The area under the ketamine concentration–time curve was estimated by means of the trapezoidal rule.\nThe absolute percentage TRT variability of kinetic parameters between test and retest scans was calculated using the equation TRT variability = 2 · (ρretest − ρtest)/(ρtest + ρretest) · 100, where ρ is the kinetic parameter of interest. The between-subject coefficient of variation was calculated as the standard deviation divided by the sample mean · 100. […] SUV from 90 to 120 min (SUV90–120) was calculated as the mean of the last three mid-frame SUV values."}, "[4]": {"conditions": "ex vivo rodent, cited from earlier work"}}, "note": "“And” between values parts separate entries of the source, which are not always exact repeats. Identical values can stand only once. Like-named read-outs stand apart in the source and are kept apart here.", "data": [{"smiles": "CSc1ccc(Cl)c(NC(=N)N(C)c2cccc(OC[18F])c2)c1", "note": "[[^18F]PK-209, 3-(2-chloro-5-(methylthio)phenyl)-1-(3-([^18F]fluoromethoxy)phenyl)-1-methylguanidine]", "values": [{"measurement": "K i", "setting": "[1]", "result": 18, "unit": "nM"}, {"measurement": "LogDoct,7.4", "setting": "[2]", "result": 1.45}, {"measurement": "difference in mean blood-to-plasma ratios between test–retest and between baseline–ketamine scans", "setting": "[3]; all eight measured timepoints", "result": "< 3", "unit": "%"}, {"measurement": "peak radioactivity concentration in plasma, mean SUV", "setting": "[3]; arterial plasma", "result": "17.4 ± 2.8"}, {"measurement": "plasma radioactivity as % of the peak", "setting": "[3]; at 3 min", "result": "~ 7%"}, {"measurement": "fractional recovery of radioactivity from plasma", "setting": "[3]; declined over time, stabilizing", "result": "approximately 45%"}, {"measurement": "activity that could not be extracted", "setting": "[3]; 5 min p.i.", "result": "15 ± 3", "unit": "%"}, {"measurement": "activity that could not be extracted", "setting": "[3]; 120 min p.i.", "result": "54 ± 4", "unit": "%"}, {"measurement": "mean parent fraction", "setting": "[3]; 5 min p.i.", "result": "77 ± 7", "unit": "%"}, {"measurement": "mean parent fraction", "setting": "[3]; 10 min p.i.", "result": "57 ± 9% and 57%"}, {"measurement": "mean parent fraction", "setting": "[3]; 20 min p.i.", "result": "34 ± 5% and 34%"}, {"measurement": "mean parent fraction", "setting": "[3]; 60 min p.i.", "result": "19 ± 3", "unit": "%"}, {"measurement": "mean parent fraction", "setting": "[3]; 120 min p.i.", "result": "14 ± 3", "unit": "%"}, {"measurement": "parent fractions in baseline scans lower than the test–retest group", "setting": "[3]; subjects 6 to 10, average", "result": 16, "unit": "%"}, {"measurement": "non-polar metabolite fraction in brain", "setting": "[4]; 15 min p.i.", "result": 18, "unit": "%"}, {"measurement": "non-polar metabolite fraction in brain", "setting": "[4]; 60 min p.i.", "result": 25, "unit": "%"}, {"measurement": "polar metabolites, contribution to total brain radioactivity", "setting": "[4]; 60 min p.i.", "result": 4, "unit": "%"}]}]}
